Test results published in patent US10844092B2, “Peptide for promoting regeneration of dentin or dental pulp tissue” (HysensBio Co., Ltd., priority 2016, dated 2020).

Tested on: Dspp gene
Test: mRNA level of Dspp gene in MDPC-23 cells by real-time PCR
Type: cell-based, mouse
Conditions: 48 hours, ratio relative to Dspp mRNA level of control group, triplicate
Description: The MDPC-23 cells cultured in Example 2-1 were treated with the peptides of the respective groups which were synthesized in Example 1, and cultured for 48 hours. Then, mRNA levels of an odontoblast differentiation marker Dspp gene expressed in the MDPC-23 cells were measured, and a ratio of the measured Dspp mRNA level relative to a Dspp mRNA level measured in a control group was calculated, respectively (Tables 13 to 24). Further, mean values of the Dspp mRNA levels measured in the peptides of respective groups were compared between the groups (FIG. 1B). In this regard MDPC-23 cells which were treated with none of the peptides of the present invention were used as a control group.
The expression levels of the Dspp gene were measured by RT-PCR and real time PCR analysis: In detail, total RNA was extracted from the MDPC-23 cells with TRIzol reagent. 2 μg of the total RNA, 1 μl of reverse transcriptase, and 0.5 μg oligo (dT) were used to synthesize cDNA. The synthesized cDNA were used in real-time polymerase chain reaction. The real-time polymerase chain reaction was performed on an ABI PRISM 7500 sequence detection system (Applied Biosystems) using the following primers and a SYBR GREEN PCR Master Mix (Takara, Japan). The real-time polymerase chain reaction was performed under conditions of 94° C., 1 min; 95° C., 15 sec 60° C., 34 sec for 40 cycles. Results were analyzed by a comparative cycle threshold (CT) method. In this regard, Gapdh gene was used as an internal control. The experiments were performed in triplicate, and then mean values and standard deviations thereof were taken as measured values.

First: 1 (KYQRRKKNKY; Synthetic construct of novel peptide) [compound 1]
Second: 2 (KYQRRKRNKY; Synthetic construct of novel peptide) [compound 2]
The “mRNA level of Dspp gene, Mean” value of the first is higher: 1.754 for the first, 1.646 for the second.

First: 3 (KYQRRRKNKY; Synthetic construct of novel peptide) [compound 3]
Second: 4 (KYQRRRRNKY; Synthetic construct of novel peptide) [compound 4]
The “mRNA level of Dspp gene, Mean” value of the first is lower: 1.464 for the first, 1.855 for the second.

Compared with “5 (KYQRKKKNKY; Synthetic construct of novel peptide) [compound 5]”, “6 (KYQRKRKNKY; Synthetic construct of novel peptide) [compound 6]” is higher in “mRNA level of Dspp gene, Mean” value: 1.639 for the first, 1.746 for the second.

Compared with “7 (KYQRKKRNKY; Synthetic construct of novel peptide) [compound 7]”, “8 (KYQRKRRNKY; Synthetic construct of novel peptide) [compound 8]” is lower in “mRNA level of Dspp gene, Mean” value: 1.864 for the first, 1.639 for the second.

Going from “9 (KYQRRKKSKY; Synthetic construct of novel peptide) [compound 9]” to “10 (KYQRRKRSKY; Synthetic construct of novel peptide) [compound 10]”, the “mRNA level of Dspp gene, Mean” value falls from 1.854 to 1.746.

Compared with “11 (KYQRRRKSKY; Synthetic construct of novel peptide) [compound 11]”, “12 (KYQRRRRSKY; Synthetic construct of novel peptide) [compound 12]” is lower in “mRNA level of Dspp gene, Mean” value: 1.639 for the first, 1.548 for the second.

Going from “13 (KYQRKKKSKY; Synthetic construct of novel peptide) [compound 13]” to “14 (KYQRKRKSKY; Synthetic construct of novel peptide) [compound 14]”, the “mRNA level of Dspp gene, Mean” value rises from 1.685 to 1.846.

Going from “15 (KYQRKKRSKY; Synthetic construct of novel peptide) [compound 15]” to “16 (KYQRKRRSKY; Synthetic construct of novel peptide) [compound 16]”, the “mRNA level of Dspp gene, Mean” value falls from 1.964 to 1.739.

Going from “17 (KYQRRKKNYK; Synthetic construct of novel peptide) [compound 17]” to “18 (KYQRRKRNYK; Synthetic construct of novel peptide) [compound 18]”, the “mRNA level of Dspp gene, Mean” value rises from 2.117 to 2.319.

Going from “19 (KYQRRRKNYK; Synthetic construct of novel peptide) [compound 19]” to “20 (KYQRRRRNYK; Synthetic construct of novel peptide) [compound 20]”, the “mRNA level of Dspp gene, Mean” value rises from 1.931 to 2.553.

Going from “21 (KYQRKKKNYK; Synthetic construct of novel peptide) [compound 21]” to “22 (KYQRKRKNYK; Synthetic construct of novel peptide) [compound 22]”, the “mRNA level of Dspp gene, Mean” value rises from 1.893 to 2.412.

First: 23 (KYQRKKRNYK; Synthetic construct of novel peptide) [compound 23]
Second: 24 (KYQRKRRNYK; Synthetic construct of novel peptide) [compound 24]
The “mRNA level of Dspp gene, Mean” value of the first is lower: 2.171 for the first, 2.212 for the second.

Going from “25 (KYQRRKKSYK; Synthetic construct of novel peptide) [compound 25]” to “26 (KYQRRKRSYK; Synthetic construct of novel peptide) [compound 26]”, the “mRNA level of Dspp gene, Mean” value falls from 2.371 to 2.193.

Going from “27 (KYQRRRKSYK; Synthetic construct of novel peptide) [compound 27]” to “28 (KYQRRRRSYK; Synthetic construct of novel peptide) [compound 28]”, the “mRNA level of Dspp gene, Mean” value rises from 1.993 to 2.453.

Compared with “29 (KYQRKKKSYK; Synthetic construct of novel peptide) [compound 29]”, “30 (KYQRKRKSYK; Synthetic construct of novel peptide) [compound 30]” is higher in “mRNA level of Dspp gene, Mean” value: 1.883 for the first, 2.512 for the second.

Going from “31 (KYQRKKRSYK; Synthetic construct of novel peptide) [compound 31]” to “32 (KYQRKRRSYK; Synthetic construct of novel peptide) [compound 32]”, the “mRNA level of Dspp gene, Mean” value falls from 2.371 to 2.219.

Compared with “33 (KYRQRKKNKY; Synthetic construct of novel peptide) [compound 33]”, “34 (KYRQRKRNKY; Synthetic construct of novel peptide) [compound 34]” is higher in “mRNA level of Dspp gene, Mean” value: 1.712 for the first, 1.931 for the second.

Compared with “35 (KYRQRRKNKY; Synthetic construct of novel peptide) [compound 35]”, “36 (KYRQRRRNKY; Synthetic construct of novel peptide) [compound 36]” is higher in “mRNA level of Dspp gene, Mean” value: 1.983 for the first, 2.319 for the second.

Going from “37 (KYRQKKKNKY; Synthetic construct of novel peptide) [compound 37]” to “38 (KYRQKRKNKY; Synthetic construct of novel peptide) [compound 38]”, the “mRNA level of Dspp gene, Mean” value rises from 1.597 to 2.116.

First: 39 (KYRQKKRNKY; Synthetic construct of novel peptide) [compound 39]
Second: 40 (KYRQKRRNKY; Synthetic construct of novel peptide) [compound 40]
The “mRNA level of Dspp gene, Mean” value of the first is lower: 1.712 for the first, 2.219 for the second.

First: 41 (KYRQRKKSKY; Synthetic construct of novel peptide) [compound 41]
Second: 42 (KYRQRKRSKY; Synthetic construct of novel peptide) [compound 42]
The “mRNA level of Dspp gene, Mean” value of the first is lower: 1.546 for the first, 1.586 for the second.

Going from “43 (KYRQRRKSKY; Synthetic construct of novel peptide) [compound 43]” to “44 (KYRQRRRSKY; Synthetic construct of novel peptide) [compound 44]”, the “mRNA level of Dspp gene, Mean” value rises from 1.669 to 1.793.

First: 45 (KYRQKKKSKY; Synthetic construct of novel peptide) [compound 45]
Second: 46 (KYRQKRKSKY; Synthetic construct of novel peptide) [compound 46]
The “mRNA level of Dspp gene, Mean” value of the first is lower: 1.532 for the first, 1.887 for the second.

Going from “47 (KYRQKKRSKY; Synthetic construct of novel peptide) [compound 47]” to “48 (KYRQKRRSKY; Synthetic construct of novel peptide) [compound 48]”, the “mRNA level of Dspp gene, Mean” value falls from 1.697 to 1.558.

First: 49 (KYRQRKKNYK; Synthetic construct of novel peptide) [compound 49]
Second: 50 (KYRQRKRNYK; Synthetic construct of novel peptide) [compound 50]
The “mRNA level of Dspp gene, Mean” value of the first is higher: 1.923 for the first, 1.887 for the second.

Going from “51 (KYRQRRKNYK; Synthetic construct of novel peptide) [compound 51]” to “52 (KYRQRRRNYK; Synthetic construct of novel peptide) [compound 52]”, the “mRNA level of Dspp gene, Mean” value rises from 1.601 to 2.019.

Compared with “53 (KYRQKKKNYK; Synthetic construct of novel peptide) [compound 53]”, “54 (KYRQKRKNYK; Synthetic construct of novel peptide) [compound 54]” is lower in “mRNA level of Dspp gene, Mean” value: 1.592 for the first, 1.437 for the second.

Compared with “55 (KYRQKKRNYK; Synthetic construct of novel peptide) [compound 55]”, “56 (KYRQKRRNYK; Synthetic construct of novel peptide) [compound 56]” is higher in “mRNA level of Dspp gene, Mean” value: 1.663 for the first, 1.701 for the second.

Going from “57 (KYRQRKKSYK; Synthetic construct of novel peptide) [compound 57]” to “58 (KYRQRKRSYK; Synthetic construct of novel peptide) [compound 58]”, the “mRNA level of Dspp gene, Mean” value falls from 2.039 to 1.998.

Going from “59 (KYRQRRKSYK; Synthetic construct of novel peptide) [compound 59]” to “60 (KYRQRRRSYK; Synthetic construct of novel peptide) [compound 60]”, the “mRNA level of Dspp gene, Mean” value rises from 1.792 to 2.107.

First: 61 (KYRQKKKSYK; Synthetic construct of novel peptide) [compound 61]
Second: 62 (KYRQKRKSYK; Synthetic construct of novel peptide) [compound 62]
The “mRNA level of Dspp gene, Mean” value of the first is higher: 2.301 for the first, 1.672 for the second.

Going from “63 (KYRQKKRSYK; Synthetic construct of novel peptide) [compound 63]” to “64 (KYRQKRRSYK; Synthetic construct of novel peptide) [compound 64]”, the “mRNA level of Dspp gene, Mean” value rises from 1.769 to 1.967.

First: 65 (KYKQRKKNKY; Synthetic construct of novel peptide) [compound 65]
Second: 66 (KYKQRKRNKY; Synthetic construct of novel peptide) [compound 66]
The “mRNA level of Dspp gene, Mean” value of the first is higher: 1.723 for the first, 1.627 for the second.
